These results are taken from patent US6686352B2, “Substituted imidazo [1,5-a] pyrimido [5,4-d] [1] benzazepine derivatives” (Hoffmann-La Roche Inc., priority 2001, dated 2004).

Series [1] concerns the target T1, GABA A receptor α5β3γ2 (α5 subunit) (Rattus norvegicus, UniProt P18508+P19969).
T1 construct: expressed in transfected cells; host or cells: SF9 insect cells (membrane preparation)
Briefly: [3H]flumazenil ([3H]Ro 15-1788) competition binding assay, membranes of SF9 cells expressing rat GABA A receptors. The following applies: displacement of [3H]Ro 15-1788 (0.5 nM for α5), 1 hour at 4° C., means of two determinations; especially preferred compounds. The protocol: The affinity of compounds at GABA A receptor subtypes was measured by competition for [^3H]flumazenil ([^3H]Ro 15-1788) (85 Ci/mmol; Amersham) binding to SF9 cells expressing rat receptors of composition α1β3γ2, α2β3γ2, α3β3γ2 and α5β3γ2.
Cell pellets were suspended in Krebs-tris buffer (4.8 mM KCl, 1.2 mM CaCl2, 1.2 mM MgCl2, 120 mM NaCl, 15 mM Tris; pH 7.5; binding assay buffer), homogenized by polytron for ca. 15 sec on ice and centrifuged in UZ for 30 min at 4° C. (100000 g; rotor: TFT 4594=[…]). The cell pellets were re-suspended in Krebs-tris buffer and homogenized by polytron for ca. 15 sec on ice. Aliquots of 1 ml were prepared, protein was measured (Bradford method) and the resulting membrane aliquots were stored at −70° C.
Radioligand binding assays were carried out in a volume of 200 μL (96-well plates) which contained 100 μL of cells, [^3H]Ro 15-1788 at a concentration of 1 nM for (α1, α2, α3 subunits and 0.5 nM for α5 subunits and the test compound in the range of 10^−10−3×10^−6 M. Nonspecific binding was defined by 10^−5 M diazepam and typically represented less than 5% of the total binding. Assays were incubated to equilibrium for 1 hour at 4° C. and harvested onto GF/C uni-filters (Packard) by filtration using a Packard harvester and washing with ice-cold wash buffer (50 mM Tris; pH 7.5). After drying, filter-retained radioactivity was detected by liquid scintillation counting. Ki values were calculated using Excel-Fit (Microsoft) and are the means of two determinations.

Usually melting point stands for the temperature, or range, at which the solid turns liquid. Broadly, the Ki is a measure of affinity in units of concentration, obtained from inhibition or displacement.

In the case of `Cc1ncc2n1-c1ccccc1-c1ncnc(-c3nc(C4CC4)no3)c1C2`, the melting point was 216 to 218 °C.
Same read-out and setting: as for `CCOC(=O)c1ncnc2c1Cc1cnc(C(C)C)n1-c1cc(Cl)ccc1-2`, the figure is 192 °C.
Same read-out and setting: next, `CCOC(=O)c1ncnc2c1Cc1cnc(C(C)(C)C)n1-c1ccccc1-2`: 250 °C.
`CCOC(=O)c1ncnc2c1Cc1cnc(C)n1-c1cc(C)ccc1-2` showed a melting point of 200 °C.
Compound “3-Bromo-6-methyl-9H-imidazo[1,5-a]pyrimido[5,4-d][1]benzazepine-10-carboxylic Acid Ethyl Ester [Example 22]” had a Ki in series [1] of 12.5 nM.
Turning to “3-Fluoro-6-propyl-9H-imidazo[1,5-a]pyrimido[5,4-d][1]benzazepine-10-carboxylic Acid Ethyl Ester [Example 9]”, the Ki in series [1] worked out at 8 nM.
On to `CCOC(=O)c1ncnc2c1Cc1cnc(Cc3c[nH]c4ccccc34)n1-c1cc(Cl)ccc1-2`, for which the melting point turned out to be 120 °C.
The same measure, in the same setting: as for `CCOC(=O)c1ncnc2c1Cc1cnc(Cc3ccc(OC)cc3)n1-c1cc(C)c(C)cc1-2`, the figure is 150 °C.
As for “3-Fluoro-6-methyl-9H-imidazo[1,5-a]pyrimido[5,4-d][1]benzazepine-10-carboxylic Acid Ethyl Ester [Example 8]”, in series [1], the Ki came to 4.6 nM.
For `CCOC(=O)c1ncnc2c1Cc1cnc(C)n1-c1cc(C)c(C)cc1-2`, the melting point is 210 °C.
In turn, `CCOC(=O)c1ncnc2c1Cc1cnc(Cc3ccc(OC)cc3)n1-c1cc(F)ccc1-2` displayed a melting point of 185 °C.
Same read-out and setting: as for `CCOC(=O)c1ncnc2c1Cc1cnc(C3CC3)n1-c1cc(C)ccc1-2`, the figure is 250 °C.
On the same count and under the same terms, as for `CCOC(=O)c1ncnc2c1Cc1cnc(Cc3c[nH]c4ccccc34)n1-c1ccccc1-2`, the figure is 120 °C; as for `CCOC(=O)c1ncnc2c1Cc1cncn1-c1cc(Br)ccc1-2`, 210 °C.
In series [1], “9H-Imidazo[1,5-a]pyrimido[5,4-d][1]benzazepine-10-carboxylic Acid Ethyl Ester [Example 1]” registered a Ki of 3.7 nM.
In the case of `CCOC(=O)c1ncnc2c1Cc1cnc(Cc3ccc(OC)cc3)n1-c1cc(Cl)ccc1-2`, the melting point amounted to 192 °C.
On the same count and under the same terms, next, `CCOC(=O)c1ncnc2c1Cc1cnc(Cc3c[nH]c4ccccc34)n1-c1cc(C)c(C)cc1-2`: 135 °C.
For the compound “6-(1-Methylethyl)-9H-imidazo [1,5-a]pyrimido[5,4-d][1]benzazepine-10-carboxylic Acid Ethyl Ester [Example 3]”, the Ki in series [1] was 8.9 nM.
On the same count and under the same terms, as for “6-Methyl-9H-imidazo[1,5-a]pyrimido[5,4-d][1]benzazepine-10-carboxylic Acid Ethyl Ester [Example 29]”, the figure is 3.8 nM.
Still for that read-out and setting: as for “6-Cyclopropyl-3-fluoro-9H-imidazo[1,5-a]pyrimido[5,4-d][1]benzazepine-10-carboxylic Acid Ethyl Ester [Example 11]”, the figure is 7.8 nM.
In the case of `CCOC(=O)c1ncnc2c1Cc1cnc(C(C)(C)C)n1-c1cc(Cl)ccc1-2`, the melting point was determined as 180 °C.
`CCOC(=O)c1ncnc2c1Cc1cnc(Cc3c[nH]c4ccccc34)n1-c1cc(F)ccc1-2` displayed a melting point of 230 °C.
`CCCc1ncc2n1-c1cc(C)ccc1-c1ncnc(C(=O)OCC)c1C2` showed a melting point of 250 °C.
For the compound `CCCc1ncc2n1-c1cc(C)c(C)cc1-c1ncnc(C(=O)OCC)c1C2`, the melting point is 213 °C.
As for “3-Fluoro-6-(1-methylethyl)-9H-imidazo[1,5-a]pyrimido[5,4-d][1]benzazepine-10-carboxylic Acid Ethyl Ester [Example 10]”, affinity in series [1] was put at a Ki of 11.2 nM.
Compound `CCOC(=O)c1ncnc2c1Cc1cnc(C(C)(C)C)n1-c1cc(F)ccc1-2` registered a melting point of 233 °C.
Compound “6-Propyl-9H-imidazo[1,5-a]pyrimido[5,4-d][1]benzazepine-10-carboxylic Acid Ethyl Ester [Example 2]” registered a Ki in series [1] of 5.5 nM.
In series [1], “6-Cyclopropyl-9H-imidazo[1,5-a]pyrimido[5,4-d][1]benzazepine-10-carboxylic Acid Ethyl Ester [Example 4]” returned a Ki of 7.6 nM.
On the same count and under the same terms, as for “6-[(4-Methoxyphenyl)Methyl]-9H-imidazo[1,5-a]pyrimido[5,4-d][1]benzazepine-10-carboxylic Acid Ethyl Ester [Example 6]”, the figure is 13.8 nM.
In the case of `CCOC(=O)c1ncnc2c1Cc1cnc(Cc3ccc(OC)cc3)n1-c1cc(Br)ccc1-2`, the melting point came to 180 °C.
`CCOC(=O)c1ncnc2c1Cc1cnc(C3CC3)n1-c1cc(Cl)ccc1-2` had a melting point of 230 °C.
The same measure, in the same setting: as for `CCOC(=O)c1ncnc2c1Cc1cnc(-c3ccccc3)n1-c1ccccc1-2`, the figure is 244 to 246 °C; as for `CCOC(=O)c1ncnc2c1Cc1cnc(C3CC3)n1-c1cc(Br)ccc1-2`, 230 °C; as for `Cc1ncc2n1-c1ccccc1-c1ncnc(C(=O)O)c1C2`, 285 to 287 °C.
